# Source: patent publication US12648946B2, “Combination of antibody-pyrrolobenzodiazepine derivative conjugate and PARP inhibitor” (DAIICHI SANKYO COMPANY, LIMITED, priority 2019, dated 2026)
# Where two headings read alike, the source gives them in different places.
# B1: B1: mouse anti-CLDN6 antibody from hybridoma 218B1; heavy chain variable region SEQ ID NO: 21, light chain SEQ ID NO: 19 (antibody, listed as Mus musculus, V domains shown)
# VH: EVQLQQSGPELVKPGASVKISCKTSGYTFTEYTMHWVQQSHGKSLEWIGGVNPNSGDTSYNQKFKGKATLTVDKSSSTAYMELRSLTSEDSAVYYCARPGGYDVGYYAMDYWGQGTSVTVSS
# VL: DIQMTQTASSLSASLGDRVTISCRASQDINNYLNWYQQKPDGTVKLLIYFTSRLHSGVPSRFSGSGSGTHYSLTITNLEQEDIATYFCQQGYPLPWTFGGGTKLEIK
# modifications: amino acid sequence of variable region of B1 antibody heavy chain; amino acid sequence of variable region of B1 antibody light chain
# Assays:
# [1] = tested on: human lung cancer cell line Calu-6; test: Cell growth inhibition test (1); assay type: cell-based; conditions: Calu-6, 144 h
# Procedure: (§1) The human lung cancer cell line Calu-6 obtained from ATCC (American Type Culture Collection) was used for evaluation. Cells were prepared with MEM containing 10% fetal bovine serum (GE Healthcare), MEM Non-Essential Amino Acids Solution (Thermo Fisher Scientific), and Sodium Pyruvate (Thermo Fisher Scientific) (Thermo Fisher Scientific; hereinafter, referred to as EMEM medium) to reach 1.25×10^4 cells/mL, and 80 μL portions of them were added into a 96-well cell culture microplate. After addition of the cells, the cells were cultured at 37° C. and 5% CO2 overnight.
# (§2) On the next day, 10 μL portions of pyrrolobenzodiazepine derivative A, B, or C diluted with EMEM medium to 100 pM, 50 pM, 25 pM, 12.5 pM, 6.25 pM, 3.13 pM, 1.56 pM, or 0.78 pM were added to the microplate. To each well without any pyrrolobenzodiazepine derivative, 10 μL of EMEM medium was added. Further, 10 μL portions of olaparib prepared with EMEM medium to reach 2 μM were added to the microplate. To each well without olaparib, 10 μL of EMEM medium was added. Thereafter, the microplate was cultured at 37° C. and 5% CO2 for 6 days. After culturing, the microplate was taken out of the incubator, and left to stand at room temperature for 30 minutes. CellTiter-Glo Luminescent Cell Viability Assay (Promega Corporation) in an amount equivalent to that of the culture solution was added, and stirred using a plate mixer. The microplate was left to stand at room temperature for 10 minutes, and thereafter the amount of emission was measured by using a plate reader (PerkinElmer).
# (§3) Cell survival rates in wells with derivative A, B, or C were calculated by using the following formula.
# (§4) [formula] • a: Mean value of amounts of emission from wells with derivative A, B, or C • b: Mean value of amounts of emission from wells with medium • IC50 values were calculated by using the following formula.
# (§5) [formula] • a: Concentration of derivative A, B, or C, a • b: Concentration of derivative A, B, or C, b • c: Cell survival rate when derivative A, B, or C of concentration a was added • d: Cell survival rate when derivative A, B, or C of concentration b was added • a and b satisfy a>b at points sandwiching a cell survival rate of 50%.
# Cell survival rates in wells with derivative A, B, or C added together with 2 μM olaparib were calculated by using the following formula.
# [formula] a: Mean value of amounts of emission from wells with derivative A, B, or C added together with 2 μM olaparib • b: Mean value of amounts of emission from wells with 2 μM olaparib • IC50 values were calculated by using the following formula.
# as §5, with “and 2 μM olaparib were” for “was”
# [2] = tested on: human pharyngeal cancer cell line FaDu; test: Cell growth inhibition test (2); assay type: cell-based; conditions: 144 h
# Procedure: as §1, with “pharyngeal” for “lung”, “FaDu” for “Calu-6”, “6.25×10^3” for “1.25×10^4”
# as §2, with “reach 1” for “reach 2”
# Cell survival rates in wells with derivative A, B, or […] were calculated by using the following formula.
# as §4, §5
# Cell survival rates in wells with derivative A, B, or C added together with 1 μM olaparib were calculated by using the following formula.
# [formula] • a: Mean value of amounts of emission from wells with derivative A, B, or C added together with 1 μM olaparib • b: Mean value of amounts of emission from wells with 1 μM olaparib • IC50 values were calculated by using the following formula.
# as §5, with “and 1 μM olaparib were” for “was”
# [3] = tested on: human pharyngeal cancer cell line FaDu; test: Cell growth inhibition test (3); assay type: cell-based; conditions: 144 h
# Procedure: as §1, with “pharyngeal” for “lung”, “FaDu” for “Calu-6”, “6.25×10^3” for “1.25×10^4”
# as §2, with “talazoparib” for “olaparib”, “nM” for “μM”, “talazoparib,” for “olaparib,”
# as §3, §4, §5
# Cell survival rates in wells with derivative A, B, or C added together with 2 nM talazoparib were calculated by using the following formula.
# [formula] • a: Mean value of amounts of emission from wells with derivative A, B, or C added together with 2 nM talazoparib • b: Mean value of amounts of emission from wells with 2 nM talazoparib • IC50 values were calculated by using the following formula.
# as §5, with “and 2 nM talazoparib were” for “was”
# [4] = tested on: human ovarian cancer cell line OV-90; test: Antitumor test (4), subcutaneous xenograft; assay type: in vivo, mouse; conditions: single administration
# Procedure: Mouse: Five- to six-week-old female BALB/c nude mice (Charles River Laboratories Japan, Inc.) were subjected to experiment.
# Assay and calculation formula: In all of the studies, the major axis and minor axis of a tumor were measured twice a week by using an electronic digital caliper (CD-15CX, Mitutoyo Corp.), and the tumor volume (mm^3) was calculated. The calculation formula is as shown below.
# Each of the anti-CLDN6 antibody-drug conjugate ADC1, the anti-HER2 antibody-drug conjugate ADC2, and the anti-TROP2 antibody-drug conjugate ADC3 was diluted with ABS buffer (10 mM acetate buffer (pH 5.5), 5% sorbitol), and a liquid volume of 10 mL/kg was intravenously administered into the tail vein. Olaparib was dissolved in Dimethyl sulfoxide (DMSO), diluted with 10% 2-hydroxy-propyl-β-cyclodextrin (Sigma-Aldrich Co. LLC)/Dulbecco's Phosphate-Buffered Saline, and then a liquid volume of 10 mL/kg was intraperitoneally administered. Talazoparib was dissolved in DMSO, diluted with 10% N,N-dimethylacetamide/5% Kolliphor HS15 (Sigma-Aldrich Co. LLC)/Dulbecco's Phosphate-Buffered Saline, and then a liquid volume of 10 mL/kg was orally administered. […]
# human claudin-6 = target: T1, human claudin-6 (Homo sapiens, UniProt P56747); test: FACS analysis of hybridoma antibodies on claudin-6 forced-expression cells; assay type: binding; conditions: human claudin-6-expressing CHO-K1 cells, cDNA transfection
# T1 construct: expressed in transfected cells; host or cells: CHO-K1 cells
# T1 sequence (P56747 1-220): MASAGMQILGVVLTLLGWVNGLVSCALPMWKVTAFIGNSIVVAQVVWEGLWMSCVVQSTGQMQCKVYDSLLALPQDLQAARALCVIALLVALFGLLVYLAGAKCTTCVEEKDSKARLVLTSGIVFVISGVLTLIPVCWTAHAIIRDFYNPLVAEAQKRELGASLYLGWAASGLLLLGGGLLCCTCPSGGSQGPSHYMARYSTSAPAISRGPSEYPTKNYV
# Procedure: Since the antigen for the 218B1 antibody and 218C7 antibody was estimated to be claudin-6 from the mass spectrometry, forced expression analysis by cDNA transfection was carried out.
# [5] = tested on: BxPC-3, human pancreatic cancer cell line of human CLDN6-negative cells; test: Internalization activity of antibodies (Mab-ZAP, CellTiter-Glo); assay type: cell-based; conditions: antibody 1 nM with Mab-ZAP 0.5 nM, 5 days
# Procedure: (§6) Internalization activity of the mouse anti-CLDN6 antibodies B1 and C7 was evaluated by using the anti-mouse IgG reagent, to which a toxin that inhibits protein synthesis (saporin) had been conjugated, Mab-ZAP (Advanced Targeting Systems). In this evaluation, Mab-ZAP is incorporated into cells in a manner depending on the internalization activity of a mouse anti-CLDN6 antibody, and saporin, which inhibits protein synthesis, is released in the cells to suppress cell growth.
# (§7) JEG-3 (ATCC HTB-36), a human choriocarcinoma cell line of human CLDN6-positive cells, NIH: OVCAR-3 (ATCC HTB-161), a human ovarian cancer cell line of human CLDN6-positive cells, or BxPC-3 (ATCC CRL-1687), a human pancreatic cancer cell line of human CLDN6-negative cells, was seeded in a 96-well cell culture microplate at 2×10^3 cells/well, and cultured under conditions of 37° C. and 5% CO2 overnight. On the next day, a mixed solution obtained by mixing each mouse anti-CLDN6 antibody or mouse IgG1 antibody (R&D Systems, Inc.) to a final concentration of 1 nM, with Mab-ZAP (final concentration: 0.5 nM) or AffiniPure Goat Anti-Mouse IgG, Fcγ Fragment Specific (Jackson ImmunoResearch Laboratories Inc.) (final concentration: 0.5 nM), without conjugated toxin, was added, and the cells were cultured under conditions of 37° C. and 5% CO2 for 5 days. The number of surviving cells was determined through quantification of ATP activity by using CellTiter-Glo Luminescent Cell Viability Assay (Promega Corporation).
# [6] = tested on: JEG-3, human choriocarcinoma cell line of human CLDN6-positive cells; test: as above; assay type: cell-based; conditions: antibody 1 nM with Mab-ZAP 0.5 nM, 5 days
# Procedure: as §6, §7
# [7] = tested on: NIH: OVCAR-3, human ovarian cancer cell line of human CLDN6-positive cells; test: as above; assay type: cell-based; conditions: antibody 1 nM with Mab-ZAP 0.5 nM, 5 days
# Procedure: as §6, §7
# [8] = read-out: IC50, growth-suppressing effect, added singly, Calu-6, 6 days
# [9] = read-out: IC50, growth-suppressing effect, added together with 2 μM olaparib, Calu-6, 6 days
# [10] = read-out: IC50, growth-suppressing effect, added singly, FaDu, 6 days (test 2)
# [11] = read-out: IC50, growth-suppressing effect, added together with 1 μM olaparib, FaDu, 6 days
# [12] = read-out: IC50, growth-suppressing effect, added singly, FaDu, 6 days (test 3)
# [13] = read-out: IC50, growth-suppressing effect, added together with 2 nM talazoparib, FaDu, 6 days
Molecule,"IC50 [1, 8] [pM]","IC50 [1, 9] [pM]","IC50 [2, 10] [pM]","IC50 [2, 11] [pM]","IC50 [3, 12] [pM]","IC50 [3, 13] [pM]","findings such as weight loss ([4]; Day 21, OV-90 model)","tumor growth inhibition (TGI) ([4]; niraparib 75 mg/kg oral for 5 days from Day 0, Day 21, OV-90) [%]",FACS reaction (human claudin-6),Cell growth-suppressing effect (internalization activity) [5],Cell growth-suppressing effect (internalization activity) [6],Cell growth-suppressing effect (internalization activity) [7]
"COc1cc2c(cc1OCCCCCOc1cc3c(cc1OC)C(=O)N1CC4(CC4)C[C@H]1CN3)N=C[C@@H]1CC3(CC3)CN1C2=O [derivative B, (11a′S)-7′-Methoxy-8′-[(5-{[(11a′S)-7′-methoxy-5′-oxo-5′,11a′-dihydro-1′H-spiro[cyclopropane-1,2′-pyrrolo[2,1-c][1,4]benzodiazepine]-8′-yl]oxy}pentyl)oxy]-1′,10′,11′,11a′-tetrahydro-5′H-spiro[cyclopropane-1,2′-pyrrolo[2,1-c][1,4]benzodiazepine]-5′-one]",120,79.4,123,71.9,121,82.1,,,,,,
NC(=O)c1cccc2cn(-c3ccc([C@@H]4CCCNC4)cc3)nc12 [niraparib],,,,,,,no particularly significant finding such as weight loss,1,,,,
"COc1ccc(C2=CN3C(=O)c4cc(OC)c(OCCCOc5cc6c(cc5OC)C(=O)N5CC7(CC7)C[C@H]5C=N6)cc4NC[C@@H]3C2)cc1 [derivative C, (11a′S)-7′-Methoxy-8′-(3-{[(11aS)-7-methoxy-2-(4-methoxyphenyl)-5-oxo-5,10,11,11a-tetrahydro-1H-pyrrolo[2,1-c][1,4]benzodiazepin-8-yl]oxy}propoxy)-1′,11a′-dihydro-5′H-spiro[cyclopropane-1,2′-pyrrolo[2,1-c][1,4]benzodiazepine]-5′-one]",113,89.4,73.2,44.5,83.1,51.2,,,,,,
B1,,,,,,,,,strong positive reaction,no cell growth-suppressing effect,cell growth-suppressing effect,cell growth-suppressing effect
